Laboratory results reported in ChEMBL document CHEMBL1150976, “The selectivity of protein kinase inhibitors: a further update” (Biochem J, 2007).

What was measured:
[1] = target: RAC-alpha serine/threonine-protein kinase (Homo sapiens) (UniProt P31749); assay: Percentage PKBalpha activity remaining in the presence of 0.1uM inhibitor
[2] = target: Maternal embryonic leucine zipper kinase (Homo sapiens) (UniProt Q14680); assay: Percentage MELK activity remaining in the presence of 0.1uM inhibitor
Sequence of Maternal embryonic leucine zipper kinase (Homo sapiens) (Q14680 whole entry, looked up): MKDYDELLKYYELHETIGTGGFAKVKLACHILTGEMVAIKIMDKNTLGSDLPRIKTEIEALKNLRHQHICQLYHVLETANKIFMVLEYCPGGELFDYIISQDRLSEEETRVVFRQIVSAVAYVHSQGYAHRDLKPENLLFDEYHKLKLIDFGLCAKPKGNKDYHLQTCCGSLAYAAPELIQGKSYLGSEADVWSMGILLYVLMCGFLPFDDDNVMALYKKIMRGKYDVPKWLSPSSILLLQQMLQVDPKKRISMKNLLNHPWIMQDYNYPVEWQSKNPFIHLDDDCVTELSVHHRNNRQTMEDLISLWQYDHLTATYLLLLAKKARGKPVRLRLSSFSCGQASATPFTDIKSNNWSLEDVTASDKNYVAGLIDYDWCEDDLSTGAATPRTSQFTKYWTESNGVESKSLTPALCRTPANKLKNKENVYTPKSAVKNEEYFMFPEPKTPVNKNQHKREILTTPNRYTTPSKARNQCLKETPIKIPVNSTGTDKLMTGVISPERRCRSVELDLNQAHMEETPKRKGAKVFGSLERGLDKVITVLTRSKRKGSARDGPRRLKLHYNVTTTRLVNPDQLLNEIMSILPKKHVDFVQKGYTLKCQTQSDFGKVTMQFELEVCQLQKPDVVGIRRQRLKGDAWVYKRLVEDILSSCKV

[3] = target: Serine/threonine-protein kinase Nek7 (Homo sapiens) (UniProt Q8TDX7); assay: Percentage NEK7 activity remaining in the presence of 0.1uM inhibitor
Sequence of Serine/threonine-protein kinase Nek7 (Homo sapiens) (Q8TDX7 whole entry, looked up): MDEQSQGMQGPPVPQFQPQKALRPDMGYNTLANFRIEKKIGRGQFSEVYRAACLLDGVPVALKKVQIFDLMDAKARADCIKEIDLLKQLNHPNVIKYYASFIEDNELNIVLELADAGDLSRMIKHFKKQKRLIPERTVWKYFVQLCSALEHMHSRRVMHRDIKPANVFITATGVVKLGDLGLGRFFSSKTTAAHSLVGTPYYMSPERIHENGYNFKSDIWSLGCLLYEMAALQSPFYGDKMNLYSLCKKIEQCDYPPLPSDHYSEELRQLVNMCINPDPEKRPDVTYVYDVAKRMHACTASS

[4] = target: Myosin light chain kinase, smooth muscle (Homo sapiens, UniProt Q15746); assay: Percentage SmMLCK activity remaining in the presence of 0.1uM inhibitor
[5] = target: Mitogen-activated protein kinase 8 (Homo sapiens, UniProt P45983); assay: Percentage JNK1 activity remaining in the presence of 0.1uM inhibitor
Sequence of Mitogen-activated protein kinase 8 (P45983 whole entry): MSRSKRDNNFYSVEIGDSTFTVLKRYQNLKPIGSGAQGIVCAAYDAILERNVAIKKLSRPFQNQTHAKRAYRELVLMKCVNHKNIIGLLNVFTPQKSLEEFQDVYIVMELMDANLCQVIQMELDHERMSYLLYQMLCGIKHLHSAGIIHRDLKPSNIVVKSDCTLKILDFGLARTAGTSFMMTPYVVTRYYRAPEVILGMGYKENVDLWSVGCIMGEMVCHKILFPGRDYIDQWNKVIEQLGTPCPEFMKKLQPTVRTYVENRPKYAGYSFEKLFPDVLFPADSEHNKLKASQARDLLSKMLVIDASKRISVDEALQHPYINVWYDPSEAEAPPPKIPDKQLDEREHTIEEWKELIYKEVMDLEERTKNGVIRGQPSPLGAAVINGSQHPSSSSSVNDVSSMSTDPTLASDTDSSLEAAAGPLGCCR

[6] = target: T1, Serine/threonine-protein kinase BRSK2 (Homo sapiens) (UniProt Q8IWQ3); assay: Percentage BRSK2 activity remaining in the presence of 0.1uM inhibitor
T1 sequence (whole entry): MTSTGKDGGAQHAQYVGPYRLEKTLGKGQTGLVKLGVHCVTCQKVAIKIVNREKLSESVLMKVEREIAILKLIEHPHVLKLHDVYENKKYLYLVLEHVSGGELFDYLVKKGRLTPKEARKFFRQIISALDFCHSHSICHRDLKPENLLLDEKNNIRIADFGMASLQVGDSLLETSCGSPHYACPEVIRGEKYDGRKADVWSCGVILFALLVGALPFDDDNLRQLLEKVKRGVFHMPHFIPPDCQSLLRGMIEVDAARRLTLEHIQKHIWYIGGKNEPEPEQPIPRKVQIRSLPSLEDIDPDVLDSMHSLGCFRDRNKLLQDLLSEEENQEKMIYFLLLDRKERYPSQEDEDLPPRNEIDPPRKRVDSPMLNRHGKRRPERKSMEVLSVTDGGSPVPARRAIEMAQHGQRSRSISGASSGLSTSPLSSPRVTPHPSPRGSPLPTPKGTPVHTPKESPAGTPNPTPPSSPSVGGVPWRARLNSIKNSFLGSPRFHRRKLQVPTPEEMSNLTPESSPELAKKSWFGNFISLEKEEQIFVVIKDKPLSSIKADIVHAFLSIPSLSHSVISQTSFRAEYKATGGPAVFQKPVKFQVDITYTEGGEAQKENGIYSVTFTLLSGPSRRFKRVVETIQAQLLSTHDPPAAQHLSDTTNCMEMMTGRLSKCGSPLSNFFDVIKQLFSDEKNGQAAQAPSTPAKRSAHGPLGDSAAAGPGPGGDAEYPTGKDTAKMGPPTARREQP

[7] = target: Protein kinase C alpha type (Homo sapiens) (UniProt P17252); assay: Percentage PKCalpha activity remaining in the presence of 0.1uM inhibitor
[8] = species: Rattus norvegicus; assay: Percentage AMPK activity remaining in the presence of 0.1uM inhibitor
[9] = target: Casein kinase II (Homo sapiens) (UniProt P67870+P68400+P19784); assay: Percentage CK2 activity remaining in the presence of 0.1uM inhibitor; type: protein-complex assay
[10] = target: Serine/threonine-protein kinase PAK 6 (Homo sapiens) (UniProt Q9NQU5); assay: Percentage PAK6 activity remaining in the presence of 0.01uM inhibitor
[11] = target: Serine/threonine-protein kinase pim-2 (Homo sapiens, UniProt Q9P1W9); assay: Percentage PIM2 activity remaining in the presence of 0.01uM inhibitor
Sequence of Serine/threonine-protein kinase pim-2 (Q9P1W9 whole entry, looked up): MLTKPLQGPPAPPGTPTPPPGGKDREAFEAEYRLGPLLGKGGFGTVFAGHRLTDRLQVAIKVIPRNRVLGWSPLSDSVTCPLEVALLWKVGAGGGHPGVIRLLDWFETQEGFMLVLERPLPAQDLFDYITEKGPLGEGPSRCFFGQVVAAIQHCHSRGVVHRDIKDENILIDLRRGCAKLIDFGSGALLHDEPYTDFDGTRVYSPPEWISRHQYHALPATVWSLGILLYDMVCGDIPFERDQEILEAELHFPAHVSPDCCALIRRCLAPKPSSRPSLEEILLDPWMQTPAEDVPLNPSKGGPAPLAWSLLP

[12] = species: Rattus norvegicus; assay: Percentage AMPK activity remaining in the presence of 0.01uM inhibitor
[13] = target: MAP kinase-activated protein kinase 2 (Homo sapiens) (UniProt P49137); assay: Percentage MAPKAPK2 activity remaining in the presence of 0.01uM inhibitor
[14] = target: Serine/threonine-protein kinase Nek6 (Homo sapiens) (UniProt Q9HC98); assay: Percentage NEK6 activity remaining in the presence of 0.01uM inhibitor
Sequence of Serine/threonine-protein kinase Nek6 (Homo sapiens) (Q9HC98 whole entry): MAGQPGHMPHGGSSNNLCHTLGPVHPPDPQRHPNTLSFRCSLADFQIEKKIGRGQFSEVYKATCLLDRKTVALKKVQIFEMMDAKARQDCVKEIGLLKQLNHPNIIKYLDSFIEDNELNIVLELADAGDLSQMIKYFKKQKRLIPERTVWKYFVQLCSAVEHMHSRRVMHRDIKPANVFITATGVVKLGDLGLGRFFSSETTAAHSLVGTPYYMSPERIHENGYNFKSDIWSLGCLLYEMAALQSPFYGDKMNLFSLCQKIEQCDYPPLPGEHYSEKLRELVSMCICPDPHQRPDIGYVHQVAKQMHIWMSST

[15] = target: cAMP-dependent protein kinase catalytic subunit alpha (Homo sapiens, UniProt P17612); assay: Percentage PKA activity remaining in the presence of 0.01uM inhibitor
[16] = target: Mitogen-activated protein kinase 3 (Homo sapiens) (UniProt P27361); assay: Percentage ERK1 activity remaining in the presence of 0.01uM inhibitor
Sequence of Mitogen-activated protein kinase 3 (Homo sapiens) (P27361 whole entry): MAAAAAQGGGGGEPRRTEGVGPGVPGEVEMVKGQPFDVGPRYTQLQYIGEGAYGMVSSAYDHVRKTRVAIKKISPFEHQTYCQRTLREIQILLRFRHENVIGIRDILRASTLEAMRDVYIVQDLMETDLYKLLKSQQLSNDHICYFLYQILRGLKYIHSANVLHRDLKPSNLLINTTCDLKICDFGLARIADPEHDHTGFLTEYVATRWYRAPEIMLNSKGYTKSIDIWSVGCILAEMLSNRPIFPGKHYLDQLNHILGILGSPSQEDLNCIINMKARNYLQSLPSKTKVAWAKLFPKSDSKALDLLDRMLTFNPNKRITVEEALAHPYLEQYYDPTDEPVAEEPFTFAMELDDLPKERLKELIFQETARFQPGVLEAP

[17] = target: Homeodomain-interacting protein kinase 3 (Homo sapiens) (UniProt Q9H422); assay: Percentage HIPK3 activity remaining in the presence of 0.01uM inhibitor
Sequence of Homeodomain-interacting protein kinase 3 (Homo sapiens) (Q9H422 whole entry, looked up): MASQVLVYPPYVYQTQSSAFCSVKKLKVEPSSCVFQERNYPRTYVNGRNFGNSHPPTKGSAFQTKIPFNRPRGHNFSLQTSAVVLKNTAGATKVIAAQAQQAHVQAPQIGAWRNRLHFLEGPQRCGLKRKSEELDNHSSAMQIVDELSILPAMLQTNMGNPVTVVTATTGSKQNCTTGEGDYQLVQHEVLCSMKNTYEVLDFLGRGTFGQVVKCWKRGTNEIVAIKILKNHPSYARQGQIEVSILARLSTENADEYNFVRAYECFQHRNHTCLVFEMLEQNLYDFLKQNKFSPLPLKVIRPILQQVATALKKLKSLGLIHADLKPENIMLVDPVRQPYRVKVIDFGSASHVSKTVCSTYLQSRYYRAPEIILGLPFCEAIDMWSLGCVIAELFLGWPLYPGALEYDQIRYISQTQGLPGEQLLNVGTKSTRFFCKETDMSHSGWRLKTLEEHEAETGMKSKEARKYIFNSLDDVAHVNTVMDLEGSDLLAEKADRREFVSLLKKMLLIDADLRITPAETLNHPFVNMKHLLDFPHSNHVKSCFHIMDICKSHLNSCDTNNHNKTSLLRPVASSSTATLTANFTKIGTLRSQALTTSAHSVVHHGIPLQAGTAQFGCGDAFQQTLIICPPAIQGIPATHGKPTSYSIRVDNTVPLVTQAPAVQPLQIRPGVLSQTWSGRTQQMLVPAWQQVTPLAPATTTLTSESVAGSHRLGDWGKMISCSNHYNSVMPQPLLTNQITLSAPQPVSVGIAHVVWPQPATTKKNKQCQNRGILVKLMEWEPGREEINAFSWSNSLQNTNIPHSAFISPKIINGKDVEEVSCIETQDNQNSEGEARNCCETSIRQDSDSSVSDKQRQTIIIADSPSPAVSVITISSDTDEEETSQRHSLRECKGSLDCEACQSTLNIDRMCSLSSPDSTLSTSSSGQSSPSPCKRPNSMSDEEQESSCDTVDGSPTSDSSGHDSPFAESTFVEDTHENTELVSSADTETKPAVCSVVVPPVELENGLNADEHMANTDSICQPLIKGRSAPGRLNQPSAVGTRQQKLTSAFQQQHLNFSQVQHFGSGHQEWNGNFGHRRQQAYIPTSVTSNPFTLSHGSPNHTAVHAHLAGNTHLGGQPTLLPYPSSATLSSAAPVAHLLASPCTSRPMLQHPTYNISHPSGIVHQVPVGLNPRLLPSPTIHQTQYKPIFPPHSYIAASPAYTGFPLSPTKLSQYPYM

[18] = target: T2, Serine/threonine-protein kinase D1 (Homo sapiens) (UniProt Q15139); assay: Percentage PKD1 activity remaining in the presence of 0.01uM inhibitor
T2 sequence (whole entry): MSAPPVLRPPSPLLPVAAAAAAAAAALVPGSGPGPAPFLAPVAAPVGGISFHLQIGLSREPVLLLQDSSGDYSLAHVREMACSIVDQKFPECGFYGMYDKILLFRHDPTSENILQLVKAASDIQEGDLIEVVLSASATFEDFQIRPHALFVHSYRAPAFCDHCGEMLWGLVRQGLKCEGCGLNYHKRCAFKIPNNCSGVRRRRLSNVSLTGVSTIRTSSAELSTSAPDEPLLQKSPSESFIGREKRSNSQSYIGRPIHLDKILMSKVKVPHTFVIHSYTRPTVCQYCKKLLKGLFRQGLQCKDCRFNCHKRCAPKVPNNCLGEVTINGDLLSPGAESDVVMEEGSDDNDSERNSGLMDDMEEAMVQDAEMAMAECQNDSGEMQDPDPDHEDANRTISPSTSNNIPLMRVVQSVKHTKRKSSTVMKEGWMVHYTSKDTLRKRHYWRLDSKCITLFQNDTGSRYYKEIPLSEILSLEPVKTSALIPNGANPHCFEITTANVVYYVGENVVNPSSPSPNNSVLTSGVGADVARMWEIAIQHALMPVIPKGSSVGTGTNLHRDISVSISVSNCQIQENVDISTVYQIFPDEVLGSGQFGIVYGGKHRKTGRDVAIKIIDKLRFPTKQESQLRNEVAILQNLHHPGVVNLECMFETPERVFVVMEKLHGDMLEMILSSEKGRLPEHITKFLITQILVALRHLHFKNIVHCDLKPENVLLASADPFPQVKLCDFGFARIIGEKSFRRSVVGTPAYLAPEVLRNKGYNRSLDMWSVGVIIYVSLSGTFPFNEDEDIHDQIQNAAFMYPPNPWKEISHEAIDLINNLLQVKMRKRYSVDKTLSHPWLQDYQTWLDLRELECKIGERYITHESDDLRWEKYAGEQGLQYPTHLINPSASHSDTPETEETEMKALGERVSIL

[19] = target: MAP kinase-interacting serine/threonine-protein kinase 2 (Homo sapiens) (UniProt Q9HBH9); assay: Percentage MNK2 activity remaining in the presence of 0.01uM inhibitor
[20] = target: Serine/threonine-protein kinase N2 (Homo sapiens) (UniProt Q16513); assay: Percentage PRK2 activity remaining in the presence of 0.01uM inhibitor
[21] = target: Ribosomal protein S6 kinase alpha-1 (Homo sapiens) (UniProt Q15418); assay: Percentage RSK1 activity remaining in the presence of 0.01uM inhibitor
Sequence of Ribosomal protein S6 kinase alpha-1 (Homo sapiens) (Q15418 whole entry): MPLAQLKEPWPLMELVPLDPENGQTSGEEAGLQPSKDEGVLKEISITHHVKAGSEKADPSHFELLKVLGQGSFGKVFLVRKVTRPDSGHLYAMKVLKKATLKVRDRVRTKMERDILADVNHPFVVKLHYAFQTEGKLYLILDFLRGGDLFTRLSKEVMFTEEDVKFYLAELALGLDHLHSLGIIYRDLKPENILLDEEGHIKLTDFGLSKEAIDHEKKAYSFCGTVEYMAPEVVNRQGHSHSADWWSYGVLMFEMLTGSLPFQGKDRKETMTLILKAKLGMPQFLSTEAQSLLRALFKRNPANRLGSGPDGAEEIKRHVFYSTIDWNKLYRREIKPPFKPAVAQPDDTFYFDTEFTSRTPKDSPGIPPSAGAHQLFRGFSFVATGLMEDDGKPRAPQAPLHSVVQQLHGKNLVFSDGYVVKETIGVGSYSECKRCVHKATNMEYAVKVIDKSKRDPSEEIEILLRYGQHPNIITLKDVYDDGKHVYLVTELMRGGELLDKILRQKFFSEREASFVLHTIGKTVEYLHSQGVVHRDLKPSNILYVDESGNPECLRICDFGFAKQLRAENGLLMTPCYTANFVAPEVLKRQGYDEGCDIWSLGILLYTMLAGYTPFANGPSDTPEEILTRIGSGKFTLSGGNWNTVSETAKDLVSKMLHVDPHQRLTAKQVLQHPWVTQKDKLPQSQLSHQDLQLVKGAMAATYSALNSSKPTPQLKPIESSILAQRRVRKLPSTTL

Row | SMILES | Activity [1] [%] | Activity [2] [%] | Activity [3] [%] | Activity [4] [%] | Activity [5] [%] | Activity [6] [%] | Activity [7] [%] | Activity [8] [%] | Activity [9] [%] | Activity ([2]; filed as antagonist) [%] | Activity ([7]; filed as antagonist) [%] | Activity [11] [%] | Activity [13] [%] | Activity [14] [%] | Activity [16] [%] | Activity [17] [%] | Activity [18] [%] | further results
1 | CC(C)[C@H](CO)Nc1nc(Nc2cccc(Cl)c2)c2ncn(C(C)C)c2n1 [PURVALANOLA] | 95 | 72 | 105 | 86 | 100 | 76 | 77 | 89 | 99 |  |  |  |  |  |  |  |  | 
2 | Cn1c2ccccc2c2c3c(c4c5ccccc5n(CCC#N)c4c21)CNC3=O | 96 |  | 98 |  | 69 |  |  |  | 88 | 15 | 2 |  |  |  |  |  |  | Activity ([4]; filed as antagonist): 40%; Activity ([6]; filed as antagonist): 46%
3 | Cn1cc(C2=C(c3cn(CCCSC(=N)N)c4ccccc34)C(=O)NC2=O)c2ccccc21 | 52 | 61 | 101 | 63 | 93 | 65 |  | 84 | 99 |  | 3 |  |  |  |  |  |  | 
4 | O=C(NCCCNc1nc(Nc2cccc(NC(=O)N3CCCC3)c2)ncc1I)c1cccs1 | 90 |  | 99 | 95 | 85 |  | 74 |  | 93 | 32 |  | 108 | 108 | 96 | 82 | 95 | 84 | Activity [10]: 92%; Activity [12]: 52%; Activity [15]: 102%; Activity ([6]; filed as antagonist): 45%; Activity ([19]; filed as antagonist): 47%; Activity ([8]; filed as antagonist): 11%; Activity [20]: 79%; Activity [21]: 100%
5 | CN(C)C[C@@H]1CCn2cc(c3ccccc32)C2=C(C(=O)NC2=O)c2cn(c3ccccc23)CCO1 | 90 |  | 104 | 66 | 87 |  |  | 71 | 89 |  |  |  |  |  |  |  |  | 
6 | CC(C)CCN1c2nc(Nc3cc(F)c(O)c(F)c3)ncc2N(C)C(=O)C1C (stereo not given) | 98 |  | 108 | 107 | 88 | 78 | 90 | 108 | 97 | 40 |  |  |  |  |  |  |  | 
7 | CN[C@@H]1C[C@H]2O[C@@](C)([C@@H]1OC)n1c3ccccc3c3c4c(c5c6ccccc6n2c5c31)C(=O)N[C@H]4O (stereo in doubt) |  |  |  |  |  |  |  |  |  |  |  | 73 | 75 | 104 | 112 | 116 | 83 | Activity ([10]; filed as antagonist): 35%; Activity ([12]; filed as antagonist): 9%; Activity [15]: 63%; Activity [19]: 103%; Activity ([20]; filed as antagonist): 10%; Activity ([21]; filed as antagonist): 25%
8 | Cc1n[nH]c2ccc(-c3cncc(OC[C@@H](N)Cc4c[nH]c5ccccc45)c3)cc12 |  | 63 | 84 |  | 90 | 79 |  | 67 | 90 |  | 29 | 59 | 92 | 95 | 77 | 90 | 63 | Activity [10]: 87%; Activity ([1]; filed as antagonist): 3%; Activity [12]: 84%; Activity ([15]; filed as antagonist): 26%; Activity ([4]; filed as antagonist): 27%; Activity [19]: 97%; Activity ([20]; filed as antagonist): 17%; Activity [21]: 78%
